Converted amounts (≈) assume the structure as drawn.
Experiments:
Assay type in all cases: functional
[1] = tested on: Pseudomonas aeruginosa; assay: Antimicrobial activity against Pseudomonas aeruginosa pleural fluid isolate 4679 containing PFGE clone A1 expressing beta-lactamase IMP-15 by broth microdilution method
[2] = tested on: Pseudomonas aeruginosa; assay: Antimicrobial activity against Pseudomonas aeruginosa urine isolate 4663 expressing beta-lactamase IMP-15 by broth microdilution method
[3] = tested on: Pseudomonas aeruginosa; assay: Antimicrobial activity against Pseudomonas aeruginosa secretion isolate 4658 containing PFGE clone A1 expressing beta-lactamase IMP-15 by broth microdilution method
[4] = tested on: Pseudomonas aeruginosa; assay: Antimicrobial activity against Pseudomonas aeruginosa blood isolate 4659 containing PFGE clone A2 expressing beta-lactamase IMP-15 by broth microdilution method
[5] = tested on: Pseudomonas aeruginosa; assay: Antimicrobial activity against Pseudomonas aeruginosa blood isolate 4677 containing PFGE clone A expressing beta-lactamase IMP-15 by broth microdilution method
[6] = tested on: Pseudomonas aeruginosa; assay: Antimicrobial activity against Pseudomonas aeruginosa catheter isolate 4680 containing PFGE clone A2 expressing beta-lactamase IMP-15 by broth microdilution method
[7] = tested on: Pseudomonas aeruginosa; assay: Antimicrobial activity against Pseudomonas aeruginosa secretion isolate 4703 containing PFGE clone A1 expressing beta-lactamase IMP-15 by broth microdilution method
[8] = tested on: Pseudomonas aeruginosa; assay: Antimicrobial activity against Pseudomonas aeruginosa blood isolate 4667 containing PFGE clone A expressing beta-lactamase IMP-15 by broth microdilution method
[9] = tested on: Pseudomonas aeruginosa; assay: Antimicrobial activity against Pseudomonas aeruginosa secretion isolate 4682-1 containing PFGE clone A expressing beta-lactamase IMP-15 by broth microdilution method
[10] = tested on: Pseudomonas aeruginosa; assay: Antimicrobial activity against Pseudomonas aeruginosa secretion isolate 4688 containing PFGE clone A1 expressing beta-lactamase IMP-15 by broth microdilution method
[11] = tested on: Pseudomonas aeruginosa; assay: Antimicrobial activity against Pseudomonas aeruginosa urine isolate 4698 containing PFGE clone A expressing beta-lactamase IMP-15 by broth microdilution method
[12] = tested on: Pseudomonas aeruginosa; assay: Antimicrobial activity against Pseudomonas aeruginosa catheter isolate 4696 containing PFGE clone A expressing beta-lactamase IMP-15 by broth microdilution method
[13] = tested on: Pseudomonas aeruginosa; assay: Antimicrobial activity against Pseudomonas aeruginosa urine isolate 4706 containing PFGE clone A expressing beta-lactamase IMP-15 by broth microdilution method
[14] = tested on: Pseudomonas aeruginosa; assay: Antimicrobial activity against Pseudomonas aeruginosa clinical isolates assessed as resistant isolates by agar dilution method
[15] = tested on: Pseudomonas aeruginosa; assay: Antimicrobial activity against Pseudomonas aeruginosa catheter isolate 4696 containing PFGE clone A expressing beta-lactamase IMP-15 by broth microdilution method in presence of beta-lactamase inhibitor Tazobactam
[16] = tested on: Pseudomonas aeruginosa; assay: Antimicrobial activity against Pseudomonas aeruginosa urine isolate 4663 expressing beta-lactamase IMP-15 by broth microdilution method in presence of beta-lactamase inhibitor Tazobactam; settings: isolate 4663, Urine
[17] = tested on: Pseudomonas aeruginosa; assay: Antimicrobial activity against Pseudomonas aeruginosa blood isolate 4677 containing PFGE clone A expressing beta-lactamase IMP-15 by broth microdilution method in presence of beta-lactamase inhibitor Tazobactam
[18] = tested on: Pseudomonas aeruginosa; assay: Antimicrobial activity against Pseudomonas aeruginosa urine isolate 4698 containing PFGE clone A expressing beta-lactamase IMP-15 by broth microdilution method in presence of beta-lactamase inhibitor Tazobactam; settings: isolate 4698, Urine
[19] = tested on: Pseudomonas aeruginosa; assay: Antimicrobial activity against Pseudomonas aeruginosa secretion isolate 4682-1 containing PFGE clone A expressing beta-lactamase IMP-15 by broth microdilution method in presence of beta-lactamase inhibitor Tazobactam
[20] = tested on: Pseudomonas aeruginosa; assay: Antimicrobial activity against Pseudomonas aeruginosa secretion isolate 4688 containing PFGE clone A1 expressing beta-lactamase IMP-15 by broth microdilution method in presence of beta-lactamase inhibitor Tazobactam
[21] = tested on: Pseudomonas aeruginosa; assay: Antimicrobial activity against Pseudomonas aeruginosa catheter isolate 4680 containing PFGE clone A2 expressing beta-lactamase IMP-15 by broth microdilution method in presence of beta-lactamase inhibitor Tazobactam
[22] = tested on: Pseudomonas aeruginosa; assay: Antimicrobial activity against Pseudomonas aeruginosa urine isolate 4706 containing PFGE clone A expressing beta-lactamase IMP-15 by broth microdilution method in presence of beta-lactamase inhibitor Tazobactam; settings: isolate 4706, Urine
[23] = tested on: Pseudomonas aeruginosa; assay: Antimicrobial activity against Pseudomonas aeruginosa pleural fluid isolate 4679 containing PFGE clone A1 expressing beta-lactamase IMP-15 by broth microdilution method in presence of beta-lactamase inhibitor Tazobactam; settings: isolate 4679, Pleural fluid
[24] = tested on: Pseudomonas aeruginosa; assay: Antimicrobial activity against Pseudomonas aeruginosa secretion isolate 4658 containing PFGE clone A1 expressing beta-lactamase IMP-15 by broth microdilution method in presence of beta-lactamase inhibitor Tazobactam
[25] = tested on: Pseudomonas aeruginosa; assay: Antimicrobial activity against Pseudomonas aeruginosa clinical isolates assessed as resistant isolates by agar dilution method in presence of beta-lactamase inhibitor Tazobactam
[26] = tested on: Pseudomonas aeruginosa; assay: Antimicrobial activity against Pseudomonas aeruginosa blood isolate 4659 containing PFGE clone A2 expressing beta-lactamase IMP-15 by broth microdilution method in presence of beta-lactamase inhibitor Tazobactam
[27] = tested on: Pseudomonas aeruginosa; assay: Antimicrobial activity against Pseudomonas aeruginosa secretion isolate 4703 containing PFGE clone A1 expressing beta-lactamase IMP-15 by broth microdilution method in presence of beta-lactamase inhibitor Tazobactam
[28] = tested on: Pseudomonas aeruginosa; assay: Antimicrobial activity against Pseudomonas aeruginosa blood isolate 4667 containing PFGE clone A expressing beta-lactamase IMP-15 by broth microdilution method in presence of beta-lactamase inhibitor Tazobactam

NCC[C@H](O)C(=O)N[C@@H]1C[C@H](N)[C@@H](O[C@H]2O[C@H](CN)[C@@H](O)[C@H](O)[C@H]2O)[C@H](O)[C@H]1O[C@H]1O[C@H](CO)[C@@H](O)[C@H](N)[C@H]1O [AMIKACIN]
MIC [1]: > 128 µg/mL | MIC ([2]; isolate 4663, Urine): 4 µg/mL (≈ 6.83 µM) | MIC [3]: > 128 µg/mL | MIC [4]: > 128 µg/mL | MIC [5]: > 128 µg/mL | MIC [6]: > 128 µg/mL | MIC [7]: 128 µg/mL (≈ 219 µM) | MIC [8]: > 128 µg/mL | MIC [9]: > 128 µg/mL | MIC [10]: > 128 µg/mL | MIC ([11]; isolate 4698, Urine): > 128 µg/mL | MIC [12]: > 128 µg/mL | MIC ([13]; isolate 4706, Urine): 64 µg/mL (≈ 109 µM) | Activity [14]: 51%

C[C@H]1[C@H](NC(=O)/C(=N\OC(C)(C)C(=O)O)c2csc(N)n2)C(=O)N1S(=O)(=O)O [AZTREONAM]
MIC ([2]; isolate 4663, Urine): 8 µg/mL (≈ 18.4 µM)

CC(C)(O/N=C(\C(=O)N[C@@H]1C(=O)N2C(C(=O)[O-])=C(C[n+]3ccccc3)CS[C@H]12)c1csc(N)n1)C(=O)O [CEFTAZIDIME]
MIC [1]: > 128 µg/mL | MIC ([2]; isolate 4663, Urine): > 128 µg/mL | MIC [3]: > 128 µg/mL | MIC [4]: > 128 µg/mL | MIC [5]: > 128 µg/mL | MIC [6]: > 128 µg/mL | MIC [7]: > 128 µg/mL | MIC [8]: > 128 µg/mL | MIC [9]: > 128 µg/mL | MIC [10]: > 128 µg/mL | MIC ([11]; isolate 4698, Urine): > 128 µg/mL | MIC [12]: > 128 µg/mL | MIC ([13]; isolate 4706, Urine): > 128 µg/mL | Activity [14]: 61%

C[C@@H](O)[C@H]1C(=O)N2C(C(=O)O)=C(SCCNC=N)C[C@H]12 [IMIPENEM ANHYDROUS]
MIC [1]: 128 µg/mL (≈ 428 µM) | MIC ([2]; isolate 4663, Urine): 32 µg/mL (≈ 107 µM) | MIC [3]: 128 µg/mL (≈ 428 µM) | MIC [4]: > 128 µg/mL | MIC [5]: > 128 µg/mL | MIC [6]: 128 µg/mL (≈ 428 µM) | MIC [7]: > 128 µg/mL | MIC [8]: > 128 µg/mL | MIC [9]: 128 µg/mL (≈ 428 µM) | MIC [10]: > 128 µg/mL | MIC ([11]; isolate 4698, Urine): > 128 µg/mL | MIC [12]: 128 µg/mL (≈ 428 µM) | MIC ([13]; isolate 4706, Urine): 32 µg/mL (≈ 107 µM) | Activity [14]: 100%

C[C@@H](O)[C@H]1C(=O)N2C(C(=O)O)=C(S[C@@H]3CN[C@H](C(=O)N(C)C)C3)[C@H](C)[C@H]12 [MEROPENEM]
MIC [1]: 128 µg/mL (≈ 334 µM) | MIC ([2]; isolate 4663, Urine): > 128 µg/mL | MIC [3]: 128 µg/mL (≈ 334 µM) | MIC [4]: 128 µg/mL (≈ 334 µM) | MIC [5]: 128 µg/mL (≈ 334 µM) | MIC [6]: 128 µg/mL (≈ 334 µM) | MIC [7]: 128 µg/mL (≈ 334 µM) | MIC [8]: 128 µg/mL (≈ 334 µM) | MIC [9]: 128 µg/mL (≈ 334 µM) | MIC [10]: 128 µg/mL (≈ 334 µM) | MIC ([11]; isolate 4698, Urine): 128 µg/mL (≈ 334 µM) | MIC [12]: 128 µg/mL (≈ 334 µM) | MIC ([13]; isolate 4706, Urine): 128 µg/mL (≈ 334 µM) | Activity [14]: 87%

CCN1CCN(C(=O)N[C@@H](C(=O)N[C@@H]2C(=O)N3[C@@H]2SC(C)(C)[C@@H]3C(=O)O)c2ccccc2)C(=O)C1=O [PIPERACILLIN]
MIC [1]: 64 µg/mL (≈ 124 µM) | MIC [15]: 64 µg/mL | MIC [16]: 64 µg/mL | MIC [17]: 64 µg/mL | MIC [18]: 64 µg/mL | MIC [19]: 64 µg/mL | MIC [20]: 64 µg/mL | MIC ([2]; isolate 4663, Urine): 64 µg/mL (≈ 124 µM) | MIC [3]: 64 µg/mL (≈ 124 µM) | MIC [21]: 64 µg/mL | MIC [4]: 64 µg/mL (≈ 124 µM) | MIC [5]: 64 µg/mL (≈ 124 µM) | MIC [22]: 64 µg/mL | MIC [23]: 64 µg/mL | MIC [6]: 64 µg/mL (≈ 124 µM) | MIC [7]: 64 µg/mL (≈ 124 µM) | MIC [24]: 64 µg/mL | MIC [8]: 64 µg/mL (≈ 124 µM) | Activity [25]: 14% | MIC [9]: 64 µg/mL (≈ 124 µM) | MIC [26]: 64 µg/mL | MIC [10]: 64 µg/mL (≈ 124 µM) | MIC ([11]; isolate 4698, Urine): 64 µg/mL (≈ 124 µM) | MIC [27]: 64 µg/mL | MIC [12]: 64 µg/mL (≈ 124 µM) | MIC [28]: 64 µg/mL | MIC ([13]; isolate 4706, Urine): 64 µg/mL (≈ 124 µM) | Activity [14]: 19%

GENTAMICIN
MIC [1]: 128 µg/mL | MIC [2]: 128 µg/mL | MIC [3]: 128 µg/mL | MIC [4]: > 128 µg/mL | MIC [5]: > 128 µg/mL | MIC [6]: 128 µg/mL | MIC [7]: > 128 µg/mL | MIC [8]: 128 µg/mL | MIC [9]: > 128 µg/mL | MIC [10]: > 128 µg/mL | MIC [11]: > 128 µg/mL | MIC [12]: > 128 µg/mL | MIC [13]: > 128 µg/mL | Activity [14]: 54%

Source: ChEMBL document CHEMBL1275456, “Metallo-beta-lactamase gene bla(IMP-15) in a class 1 integron, In95, from Pseudomonas aeruginosa clinical isolates from a hospital in Mexico” (2008)
